Data reported in patent publication US7973075B2, “Kainate receptor-selective epimeric analogs of dysiherbaine” (priority 2007, dated 2011).
Several values for one entry are separate records, joined by “and”; a condition that tells them apart may be missing. Identical values can stand only once.

Each compound was assayed against T1, GluR1 (Rattus norvegicus, UniProt P19490) (assay: Radioligand displacement ([3H]AMPA), Example 1). Conditions: Tables 1-2; read-out: GluR1 binding affinity (displacement of [3H]AMPA).
T1 construct: expressed in transfected cells; host or cells: COS-7 or HEK-T/17
Type: binding
Protocol: (§1) Dysiherbaine (DH) was used as a template for generating novel KAR ligands. (See FIG. 1.) These included 8-deoxy and 9-deoxy analogs of neodysiherbaine (neoDH). (See FIG. 2.) The binding of these analogs to glutamate receptors was assessed by radioligand binding as follows. Membrane preparations from COS-7 or HEK-T/17 cells were isolated 2-3 days after transfection. Displacement assays were performed as described previously (Swanson et al., NEURON 1997; 19:913-26). Unlabeled marine toxin analogs were used to displace [^3H]kainate or [^3H]AMPA (PerkinElmer) from kainate and AMPA receptors, respectively. (See FIG. 2 and Table 1.)
(§2) Non-specific binding was defined in the presence of 1 mM glutamate. The effect of these analogs on electrophysiology was assessed as follows. HEK 293 cells were transfected with receptor cDNAs in combination with eGFP cDNA. Patch-clamp recordings from transfected cells were made 24-72 hours later using a fast application system described previously (Swanson et al., NEURON 1997; 19:913-26). (See FIG. 3.)
(§3) Additional epimer analogs were generated. These included 4-epi-neodysiherbaine, 8-epi-neodysiherbaine, 9-epi-neodysiherbaine, and 8,9-epi-neodysiherbaine. (See FIG. 4.) The binding of these analogs to glutamate receptors was assessed by radioligand binding as described above. (See FIG. 4 and Table 2.)

T1 sequence (P19490 19-907 isoform P19490-2 limits assumed): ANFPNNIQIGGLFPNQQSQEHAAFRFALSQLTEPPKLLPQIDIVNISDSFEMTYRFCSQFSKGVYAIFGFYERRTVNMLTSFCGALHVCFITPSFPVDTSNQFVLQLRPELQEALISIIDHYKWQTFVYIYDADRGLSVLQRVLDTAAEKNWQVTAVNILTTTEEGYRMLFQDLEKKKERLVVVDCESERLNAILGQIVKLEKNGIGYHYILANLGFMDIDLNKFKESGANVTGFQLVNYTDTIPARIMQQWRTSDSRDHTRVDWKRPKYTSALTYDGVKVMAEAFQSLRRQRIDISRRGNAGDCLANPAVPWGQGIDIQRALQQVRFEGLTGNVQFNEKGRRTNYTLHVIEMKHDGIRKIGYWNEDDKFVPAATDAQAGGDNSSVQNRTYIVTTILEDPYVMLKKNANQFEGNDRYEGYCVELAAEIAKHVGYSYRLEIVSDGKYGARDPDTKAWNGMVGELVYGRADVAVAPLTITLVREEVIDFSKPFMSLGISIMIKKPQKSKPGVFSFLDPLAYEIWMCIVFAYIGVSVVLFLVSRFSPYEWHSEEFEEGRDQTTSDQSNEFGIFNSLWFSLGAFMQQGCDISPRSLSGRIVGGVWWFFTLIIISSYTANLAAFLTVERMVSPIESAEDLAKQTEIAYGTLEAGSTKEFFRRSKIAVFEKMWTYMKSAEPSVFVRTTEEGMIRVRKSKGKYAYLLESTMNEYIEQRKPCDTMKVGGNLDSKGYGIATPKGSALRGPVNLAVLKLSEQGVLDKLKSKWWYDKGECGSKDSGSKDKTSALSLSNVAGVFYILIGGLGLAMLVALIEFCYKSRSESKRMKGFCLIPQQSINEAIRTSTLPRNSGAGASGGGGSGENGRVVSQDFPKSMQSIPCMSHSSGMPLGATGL

SMILES | Ki [µM]
N[C@@H](C[C@]1(C(=O)O)C[C@H]2OCC[C@@H](O)[C@H]2O1)C(=O)O [9-deoxy-neoDH] | > 100

What follows are compounds tested against T2, GluR2 (Rattus norvegicus, UniProt P19491) (assay: Radioligand displacement ([3H]AMPA), Example 1). Conditions: Tables 1-2; read-out: GluR2 binding affinity (displacement of [3H]AMPA).
T2 construct: expressed in transfected cells; host or cells: COS-7 or HEK-T/17
Type: binding
Protocol: as §1, §2, §3

T2 sequence (P19491 22-883 isoform P19491-2 limits assumed): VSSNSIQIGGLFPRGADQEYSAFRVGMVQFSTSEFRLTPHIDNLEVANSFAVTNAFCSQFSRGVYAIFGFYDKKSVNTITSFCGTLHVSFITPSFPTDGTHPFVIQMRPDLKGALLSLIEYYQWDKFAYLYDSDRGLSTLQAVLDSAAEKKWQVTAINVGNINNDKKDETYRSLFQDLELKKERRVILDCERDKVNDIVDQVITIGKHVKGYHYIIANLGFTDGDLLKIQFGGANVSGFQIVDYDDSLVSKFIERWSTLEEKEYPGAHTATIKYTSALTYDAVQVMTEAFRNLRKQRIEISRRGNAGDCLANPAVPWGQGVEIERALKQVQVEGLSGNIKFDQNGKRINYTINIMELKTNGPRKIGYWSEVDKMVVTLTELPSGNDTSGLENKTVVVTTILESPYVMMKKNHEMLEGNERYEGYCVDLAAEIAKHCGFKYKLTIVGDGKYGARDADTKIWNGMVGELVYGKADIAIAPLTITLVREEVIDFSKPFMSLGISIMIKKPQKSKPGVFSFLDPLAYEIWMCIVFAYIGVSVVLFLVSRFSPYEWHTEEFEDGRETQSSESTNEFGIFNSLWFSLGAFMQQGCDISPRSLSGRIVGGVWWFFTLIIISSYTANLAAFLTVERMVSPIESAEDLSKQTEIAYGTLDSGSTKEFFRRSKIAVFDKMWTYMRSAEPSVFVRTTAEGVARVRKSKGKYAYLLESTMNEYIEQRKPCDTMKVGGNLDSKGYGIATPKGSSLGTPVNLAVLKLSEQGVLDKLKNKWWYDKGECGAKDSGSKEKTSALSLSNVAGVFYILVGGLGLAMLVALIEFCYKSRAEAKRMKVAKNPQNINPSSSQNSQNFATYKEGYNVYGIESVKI

SMILES | Ki [µM]
N[C@@H](C[C@]1(C(=O)O)C[C@H]2OCC[C@@H](O)[C@H]2O1)C(=O)O [9-deoxy-neoDH] | > 100

Each compound was assayed against T3, GluR5-2a (Rattus norvegicus, UniProt P22756, DEL402-416) (assay: Radioligand binding ([3H]kainate displacement), HEK-293-T/17 membranes, Example 2). Conditions: Cheng-Prusoff, read-out: Ki GluR5-2a.
T3 construct: expressed in transfected cells; host or cells: HEK-293-T/17
Protocol: (§4) Radioligand binding. Membrane preparations from HEK-293-T/17 cells were prepared and used in radioligand binding assays as described previously (Sanders et al., 2005). Unlabeled analogs were used to displace [3H]kainate (10-20 nM, PerkinElmer Life and Analytical Sciences, Boston, Mass.) or [3H]AMPA (20 nM, PerkinElmer Life and Analytical Sciences, Boston, Mass.) from KARs and AMPARs, respectively. Nonspecific binding was determined in the presence of 1 mM glutamate. After 1 hour incubation at 4° C., samples were harvested by rapid filtration onto Whatman GF/C membranes. Upon addition of scintillation fluid, membranes were incubated for 1 hour at room temperature. A Beckman LS5000TD scintillation counter was used for quantification (Beckman Coulter Inc., Fullerton, Calif.). Data were plotted and fit with a one-site competition curve with fixed minima and maxima using Prism 4 (GraphPad Software, Inc). Ki's were calculated with the Cheng-Prusoff equation using the determined IC5o values and the radioligand Kd. Data were plotted and fit with a one-site competition curve with fixed minima (0) and maxima (100) (Prism4, GraphPad Software, Inc.). Correlation analysis was performed with these binding data and the seizure activity of each analog, represented as ED50 values.
(§5) The pharmacological profiles of the Group I analogs, 8-deoxy-neoDH and 9-deoxyneoDH, were analyzed initially in radioligand binding experiments with expressed recombinant AMPA and kainate receptor subunits. Displacement of [3H]kainate from cell membranes with a range of analog concentrations yielded IC50 values that were then used to calculate Ki values for each analog/receptor combination. Both Group 1 analogs retained high affinity only for GluR5-2a KAR subunits (FIG. 8A). […] Weak binding to other KAR and AMPAR subunits was observed, with all Ki values estimated at >10 μM (n=3-5; Table 3, FIG. 8A).
(§6) For comparison, the Ki values for neoDH and MSVIII-19 are included in the table (Sanders et al., 2005). Removal of the C9 hydroxyl eliminated binding to all receptor subunits (Ki values estimated at >100 μM), with the exception of GluR5-2a KARs.

T3 sequence (P22756 with tags, fused parts or gaps isoform P22756-2 limits assumed, stated change not applied): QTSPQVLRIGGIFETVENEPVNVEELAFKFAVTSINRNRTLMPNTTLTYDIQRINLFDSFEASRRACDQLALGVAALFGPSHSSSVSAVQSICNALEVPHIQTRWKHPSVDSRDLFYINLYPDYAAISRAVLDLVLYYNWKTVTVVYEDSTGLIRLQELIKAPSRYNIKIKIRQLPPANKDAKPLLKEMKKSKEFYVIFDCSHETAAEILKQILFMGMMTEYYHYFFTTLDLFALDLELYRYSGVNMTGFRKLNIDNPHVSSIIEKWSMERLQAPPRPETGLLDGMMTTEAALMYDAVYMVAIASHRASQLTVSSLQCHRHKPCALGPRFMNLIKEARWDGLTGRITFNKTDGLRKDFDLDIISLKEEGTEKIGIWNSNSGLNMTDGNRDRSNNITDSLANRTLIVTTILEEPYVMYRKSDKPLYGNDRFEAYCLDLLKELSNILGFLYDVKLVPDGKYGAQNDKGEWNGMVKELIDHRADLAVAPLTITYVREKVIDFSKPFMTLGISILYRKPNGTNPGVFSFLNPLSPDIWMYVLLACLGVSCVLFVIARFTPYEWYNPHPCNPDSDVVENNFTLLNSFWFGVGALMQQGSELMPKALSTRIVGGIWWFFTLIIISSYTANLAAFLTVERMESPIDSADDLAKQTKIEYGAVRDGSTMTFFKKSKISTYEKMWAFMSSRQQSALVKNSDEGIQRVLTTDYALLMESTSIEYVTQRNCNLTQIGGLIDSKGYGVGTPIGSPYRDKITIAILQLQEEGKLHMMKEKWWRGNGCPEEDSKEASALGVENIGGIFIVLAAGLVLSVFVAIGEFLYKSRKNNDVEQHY

SMILES | Ki
N[C@@H](C[C@@]1(C(=O)O)CC2OCC(O)C(O)C2O1)C(=O)O (single isomer, unassigned) [2,4-epi-neoDH, 2,4-epi-neodysiherbaine] | 2.4 µM
N[C@@H](C[C@@]1(C(=O)O)CC2OCC(O)C(O)C2O1)C(=O)O (single isomer, unassigned) [4-epi-neoDH, 4-epi-neodysiherbaine] | 0.559 µM and ~0.56 µM
N[C@@H](C[C@]1(C(=O)O)C[C@H]2OCC[C@@H](O)[C@H]2O1)C(=O)O [9-deoxy-neoDH] | 0.169 µM
NC(CC1(C(=O)O)CC2OCC(F)C(O)C2O1)C(=O)O (stereo not drawn) [9-F-8-epi-neoDH] | 0.028 µM

These compounds were tested against T4, GluR6a (Rattus norvegicus, UniProt P42260) in the same assay as above. Conditions: not given.
T4 construct: expressed in transfected cells; host or cells: HEK-293-T/17
Protocol: as §4, §5, §6

T4 sequence (P42260 32-908): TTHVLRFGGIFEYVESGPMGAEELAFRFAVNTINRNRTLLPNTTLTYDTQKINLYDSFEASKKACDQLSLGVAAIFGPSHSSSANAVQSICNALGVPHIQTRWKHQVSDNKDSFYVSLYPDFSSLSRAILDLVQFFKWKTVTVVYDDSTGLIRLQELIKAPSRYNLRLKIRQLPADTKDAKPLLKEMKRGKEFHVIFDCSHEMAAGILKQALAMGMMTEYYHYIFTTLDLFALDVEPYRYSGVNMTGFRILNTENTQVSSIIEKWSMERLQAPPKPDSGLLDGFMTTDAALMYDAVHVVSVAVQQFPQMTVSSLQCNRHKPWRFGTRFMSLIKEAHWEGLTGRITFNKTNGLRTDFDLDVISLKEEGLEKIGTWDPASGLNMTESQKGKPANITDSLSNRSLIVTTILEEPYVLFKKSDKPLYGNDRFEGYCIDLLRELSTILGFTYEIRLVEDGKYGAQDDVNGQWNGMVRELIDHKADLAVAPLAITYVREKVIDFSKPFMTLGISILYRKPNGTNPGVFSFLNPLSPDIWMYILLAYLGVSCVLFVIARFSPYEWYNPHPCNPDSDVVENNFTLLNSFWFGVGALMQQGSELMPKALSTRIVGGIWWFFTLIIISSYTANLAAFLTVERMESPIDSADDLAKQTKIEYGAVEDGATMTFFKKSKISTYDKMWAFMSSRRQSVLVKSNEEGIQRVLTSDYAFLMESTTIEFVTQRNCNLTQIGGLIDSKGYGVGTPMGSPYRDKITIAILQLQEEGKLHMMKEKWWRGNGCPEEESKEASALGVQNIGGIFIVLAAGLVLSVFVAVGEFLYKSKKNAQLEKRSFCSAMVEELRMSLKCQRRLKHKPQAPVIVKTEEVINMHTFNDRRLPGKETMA

SMILES | binding affinity for GluR6a subunit
N[C@@H](C[C@]1(C(=O)O)C[C@H]2OCCC[C@H]2O1)C(=O)O [MSVIII-19, 8,9-dideoxy-neoDH] | do not exhibit measurable affinity
N[C@@H](C[C@]1(C(=O)O)C[C@H]2OCC[C@@H](O)[C@H]2O1)C(=O)O [9-deoxy-neoDH] | do not exhibit measurable affinity
NC(CC1(C(=O)O)CC2OCC(F)C(O)C2O1)C(=O)O (stereo not drawn) [9-F-8-epi-neoDH] | do not exhibit measurable affinity

Same assay, conditions: [3H]kainate displacement; Cheng-Prusoff; read-out: Ki GluR6a

SMILES | Ki [µM]
N[C@@H](C[C@@]1(C(=O)O)CC2OCC(O)C(O)C2O1)C(=O)O (single isomer, unassigned) [2,4-epi-neoDH, 2,4-epi-neodysiherbaine] | 7.7
N[C@@H](C[C@@]1(C(=O)O)CC2OCC(O)C(O)C2O1)C(=O)O (single isomer, unassigned) [4-epi-neoDH, 4-epi-neodysiherbaine] | 6.7
N[C@@H](C[C@]1(C(=O)O)C[C@H]2OCC[C@@H](O)[C@H]2O1)C(=O)O [9-deoxy-neoDH] | > 100
NC(CC1(C(=O)O)CC2OCC(F)C(O)C2O1)C(=O)O (stereo not drawn) [9-F-8-epi-neoDH] | > 100

Each compound was assayed against T5, GluR7a (Rattus norvegicus, UniProt P42264) in the same assay as above. Conditions: not given.
T5 construct: expressed in transfected cells; host or cells: HEK-293-T/17
Protocol: as §4, §5, §6

T5 sequence (P42264 32-919): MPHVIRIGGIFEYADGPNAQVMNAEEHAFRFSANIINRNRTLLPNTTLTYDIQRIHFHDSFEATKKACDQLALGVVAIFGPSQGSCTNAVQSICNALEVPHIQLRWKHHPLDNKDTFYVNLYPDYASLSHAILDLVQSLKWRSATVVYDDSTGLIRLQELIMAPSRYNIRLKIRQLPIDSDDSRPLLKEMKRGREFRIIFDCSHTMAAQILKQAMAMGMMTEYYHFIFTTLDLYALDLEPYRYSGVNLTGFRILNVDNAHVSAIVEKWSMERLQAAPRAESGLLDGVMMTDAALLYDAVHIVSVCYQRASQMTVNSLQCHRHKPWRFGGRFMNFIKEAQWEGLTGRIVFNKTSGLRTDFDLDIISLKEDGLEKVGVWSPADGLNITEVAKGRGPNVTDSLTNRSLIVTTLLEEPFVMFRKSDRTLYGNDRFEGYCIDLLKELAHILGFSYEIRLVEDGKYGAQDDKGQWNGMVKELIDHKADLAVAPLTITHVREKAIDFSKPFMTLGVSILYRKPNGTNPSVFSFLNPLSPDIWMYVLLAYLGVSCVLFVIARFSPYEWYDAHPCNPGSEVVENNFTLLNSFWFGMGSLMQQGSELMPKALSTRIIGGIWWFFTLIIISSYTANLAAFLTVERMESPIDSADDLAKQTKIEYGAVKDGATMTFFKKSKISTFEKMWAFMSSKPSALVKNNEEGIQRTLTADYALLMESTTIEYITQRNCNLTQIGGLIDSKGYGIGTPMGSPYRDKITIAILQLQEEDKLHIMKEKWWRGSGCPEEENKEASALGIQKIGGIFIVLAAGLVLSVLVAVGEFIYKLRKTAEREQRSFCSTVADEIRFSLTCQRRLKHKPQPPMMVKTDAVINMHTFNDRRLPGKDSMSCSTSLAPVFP

SMILES | binding to GluR7 receptor
N[C@@H](C[C@@]1(C(=O)O)CC2OCC(O)C(O)C2O1)C(=O)O (single isomer, unassigned) [2,4-epi-neoDH, 2,4-epi-neodysiherbaine] | Neither 2,4-epineoDH nor 4-epi-neoDH bound the GluR7 receptor appreciably
N[C@@H](C[C@@]1(C(=O)O)CC2OCC(O)C(O)C2O1)C(=O)O (single isomer, unassigned) [4-epi-neoDH, 4-epi-neodysiherbaine] | Neither 2,4-epineoDH nor 4-epi-neoDH bound the GluR7 receptor appreciably

Same assay, conditions: [3H]kainate displacement; Cheng-Prusoff; read-out: Ki GluR7a

SMILES | Ki [µM]
N[C@@H](C[C@@]1(C(=O)O)CC2OCC(O)C(O)C2O1)C(=O)O (single isomer, unassigned) [2,4-epi-neoDH, 2,4-epi-neodysiherbaine] | > 100
N[C@@H](C[C@@]1(C(=O)O)CC2OCC(O)C(O)C2O1)C(=O)O (single isomer, unassigned) [4-epi-neoDH, 4-epi-neodysiherbaine] | > 100
N[C@@H](C[C@]1(C(=O)O)C[C@H]2OCC[C@@H](O)[C@H]2O1)C(=O)O [9-deoxy-neoDH] | > 100
NC(CC1(C(=O)O)CC2OCC(F)C(O)C2O1)C(=O)O (stereo not drawn) [9-F-8-epi-neoDH] | > 100

The compounds below were run against T6, KA2 (Rattus norvegicus, UniProt Q63273) in the same assay as above. Conditions: [3H]kainate displacement; Cheng-Prusoff; read-out: Ki KA2.
T6 construct: expressed in transfected cells; host or cells: HEK-293-T/17
T6 sequence (Q63273 15-979): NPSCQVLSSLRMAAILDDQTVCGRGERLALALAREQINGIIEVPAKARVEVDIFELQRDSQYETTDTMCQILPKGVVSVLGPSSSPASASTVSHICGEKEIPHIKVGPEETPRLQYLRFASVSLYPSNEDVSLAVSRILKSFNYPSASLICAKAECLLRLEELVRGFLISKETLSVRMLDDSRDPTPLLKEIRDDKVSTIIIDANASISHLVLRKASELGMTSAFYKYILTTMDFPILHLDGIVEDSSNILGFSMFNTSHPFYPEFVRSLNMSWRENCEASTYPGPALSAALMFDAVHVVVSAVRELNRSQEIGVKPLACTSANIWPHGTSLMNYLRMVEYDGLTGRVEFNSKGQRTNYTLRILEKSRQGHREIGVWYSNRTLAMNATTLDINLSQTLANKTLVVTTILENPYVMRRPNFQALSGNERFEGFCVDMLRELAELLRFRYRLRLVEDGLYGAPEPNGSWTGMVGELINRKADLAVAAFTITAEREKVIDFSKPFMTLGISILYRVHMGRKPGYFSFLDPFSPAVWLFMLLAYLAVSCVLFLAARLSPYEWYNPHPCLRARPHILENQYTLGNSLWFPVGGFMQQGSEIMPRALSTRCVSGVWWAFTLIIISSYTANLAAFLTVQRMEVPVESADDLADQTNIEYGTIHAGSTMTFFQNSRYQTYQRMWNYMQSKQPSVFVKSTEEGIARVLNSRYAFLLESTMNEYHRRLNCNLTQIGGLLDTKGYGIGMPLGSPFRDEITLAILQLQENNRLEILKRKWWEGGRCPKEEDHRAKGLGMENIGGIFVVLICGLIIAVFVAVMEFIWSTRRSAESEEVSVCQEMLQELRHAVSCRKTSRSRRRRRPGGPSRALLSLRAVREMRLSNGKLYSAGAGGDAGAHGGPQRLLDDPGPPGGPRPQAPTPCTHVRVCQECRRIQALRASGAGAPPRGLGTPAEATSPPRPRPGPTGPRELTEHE
Protocol: as §4, §5, §6

SMILES | Ki [µM]
N[C@@H](C[C@@]1(C(=O)O)CC2OCC(O)C(O)C2O1)C(=O)O (single isomer, unassigned) [2,4-epi-neoDH, 2,4-epi-neodysiherbaine] | > 100
N[C@@H](C[C@@]1(C(=O)O)CC2OCC(O)C(O)C2O1)C(=O)O (single isomer, unassigned) [4-epi-neoDH, 4-epi-neodysiherbaine] | ~30
N[C@@H](C[C@]1(C(=O)O)C[C@H]2OCC[C@@H](O)[C@H]2O1)C(=O)O [9-deoxy-neoDH] | > 100
NC(CC1(C(=O)O)CC2OCC(F)C(O)C2O1)C(=O)O (stereo not drawn) [9-F-8-epi-neoDH] | >100

The compounds below were run on other KAR and AMPAR subunits (assay: Radioligand binding, remaining subunits stated collectively, Example 2). Conditions: not given.
Protocol: as §4, §5, §6

SMILES | binding to other KA and AMPAR subunits
N[C@@H](C[C@@]1(C(=O)O)CC2OCC(O)C(O)C2O1)C(=O)O (single isomer, unassigned) [4-epi-neoDH, 4-epi-neodysiherbaine] | weakly displaced radioligand

What follows are compounds tested against T7, other KAR and AMPAR subunits in the same assay as above. Conditions: estimated; read-out: Ki values at other KAR and AMPAR subunits (all subunits except those named).
T7 construct: Ki values at other KAR and AMPAR subunits (all subunits except those named); other: estimated
Protocol: as §4, §5, §6

SMILES | Ki [µM]
N[C@@H](C[C@@]1(C(=O)O)CC2OCC(O)C(O)C2O1)C(=O)O (single isomer, unassigned) [2,4-epi-neoDH, 2,4-epi-neodysiherbaine] | > 100
N[C@@H](C[C@]1(C(=O)O)C[C@H]2OCC[C@@H](O)[C@H]2O1)C(=O)O [9-deoxy-neoDH] | > 100
